The results in this text go back to PubChem BioAssay (NCI).

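Values below derive from 48-hour exposures of cells grown in 96-well plates, with endpoints linearly interpolated between the two concentrations bracketing the appropriate inhibition level. TGI: total growth inhibition.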

Some test systems named below: TK-10 renal; SNB-19 CNS; K-562 leukemia; COLO 205 colon; MDA-MB-435; NCI-H226 lung; NCI-H460 lung; SK-MEL-2 melanoma; HT29 colon; SNB-75 CNS; MALME-3M melanoma; HCT-15 colon; OVCAR-4 ovarian; MCF7 breast; RXF 393 renal; SK-OV-3 ovarian.
Common to all, as to test: growth of human tumour cells (NCI), 48 h

In the case of `N#Cc1c(=O)c2ccccc2n2ccccc12`, the TGI in the assay on TK-10 renal, with SNB-19 CNS, in the assay on K-562 leukemia, in the assay on COLO 205 colon, with MDA-MB-435 and in the assay with NCI-H226 lung was above 100 µM each time. Further, the TGI is above 100 µM in the assay with NCI-H460 lung; 90.8 µM with SK-MEL-2 melanoma; above 100 µM in the assay with HT29 colon; above 100 µM with SNB-75 CNS; above 100 µM in the assay with MALME-3M melanoma; above 100 µM in the assay on HCT-15 colon. In addition, the TGI in the assay with OVCAR-4 ovarian is above 100 µM.
Regarding `Cc1cccc2oc3c(c(=O)c12)CC(O)C(C)(C)O3` (stereo not given), the TGI in the assay with TK-10 renal, in the assay on MCF7 breast, in the assay with SNB-19 CNS, in the assay on RXF 393 renal, in the assay with K-562 leukemia and with COLO 205 colon was above 100 µM in each case. In addition, the TGI in the assay on MDA-MB-435, in the assay on NCI-H226 lung, in the assay on NCI-H460 lung, in the assay with SK-MEL-2 melanoma, with HT29 colon and in the assay with SK-OV-3 ovarian was above 100 µM in each case. Also, the TGI with MALME-3M melanoma, in the assay with HCT-15 colon and with OVCAR-4 ovarian was above 100 µM in each case.
For `N#Cc1c2ccc([N+](=O)[O-])cc2c(=O)n2c1[nH]c1ccc(C(F)(F)F)cc12`, the TGI with TK-10 renal is above 100 µM; in the assay with MCF7 breast, above 100 µM; with SNB-19 CNS, above 100 µM; with K-562 leukemia, 45.7 µM; in the assay with COLO 205 colon it was above 46.3 µM; with MDA-MB-435, above 100 µM. The TGI in the assay with NCI-H226 lung is above 88.3 µM; in the assay with NCI-H460 lung it was above 100 µM; with SK-MEL-2 melanoma, above 100 µM; with HT29 colon, above 47.4 µM; in the assay on SK-OV-3 ovarian, above 100 µM; with SNB-75 CNS, above 100 µM. The TGI with MALME-3M melanoma, in the assay on HCT-15 colon and with OVCAR-4 ovarian was above 100 µM throughout.
As for `O=C(/C=C1\Sc2ccccc2N=C1CC(=O)c1ccccc1)c1ccccc1`, the TGI in the assay with TK-10 renal is 45.2 µM; in the assay on MCF7 breast it was above 100 µM; in the assay on SNB-19 CNS it was above 100 µM; in the assay with RXF 393 renal it was above 100 µM; with K-562 leukemia it was 20 µM; in the assay on COLO 205 colon it was 22.3 µM. In addition, the TGI in the assay on MDA-MB-435 worked out at 29.6 µM; in the assay with NCI-H226 lung it was 35.5 µM; in the assay with NCI-H460 lung it was 27.5 µM; with SK-MEL-2 melanoma, 87.2 µM; in the assay on HT29 colon, 23.6 µM; with SK-OV-3 ovarian it was 72 µM. The TGI with MALME-3M melanoma is 23 µM; in the assay with HCT-15 colon it was above 100 µM; in the assay on OVCAR-4 ovarian it was 40.3 µM.
For `O=C(Nc1cccc(F)c1)c1cc2ccc(O)cc2oc1=Nc1cccc(F)c1`, the TGI in the assay with MCF7 breast, in the assay on SNB-19 CNS, in the assay on K-562 leukemia, in the assay with COLO 205 colon, in the assay with MDA-MB-435 and in the assay on NCI-H460 lung was above 100 µM each time. The TGI in the assay on SK-MEL-2 melanoma was above 100 µM; in the assay with HT29 colon it was above 100 µM; in the assay with SK-OV-3 ovarian, above 100 µM; in the assay on MALME-3M melanoma, 84 µM; in the assay with HCT-15 colon, 60.1 µM; with OVCAR-4 ovarian, above 100 µM.
In the case of `COc1cc(/C=N/N=C(\N)NO)cc(OC)c1OC`, the TGI in the assay with TK-10 renal is above 100 µM; in the assay with MCF7 breast, 85.9 µM; in the assay with SNB-19 CNS, above 100 µM; in the assay with RXF 393 renal it was above 100 µM; in the assay on K-562 leukemia it was 49.2 µM; with COLO 205 colon, above 100 µM. The TGI was above 100 µM in the assay with MDA-MB-435; 73.8 µM in the assay on NCI-H226 lung; above 100 µM in the assay on NCI-H460 lung; above 100 µM in the assay on SK-MEL-2 melanoma; above 100 µM in the assay on HT29 colon; above 100 µM in the assay on SK-OV-3 ovarian. Besides, the figures for the TGI in the assay on MALME-3M melanoma, with HCT-15 colon and in the assay with OVCAR-4 ovarian were 82.7 µM, above 100 µM and above 100 µM, respectively.
Turning to `O=C1CCCC/C1=C\c1ccc([N+](=O)[O-])cc1`, the TGI in the assay with TK-10 renal was 26.3 µM; in the assay on MCF7 breast it was 37.4 µM; with SNB-19 CNS, 32.5 µM; in the assay on K-562 leukemia, 32.1 µM; in the assay with COLO 205 colon, 32.3 µM; with NCI-H460 lung it was above 100 µM. Moreover, the TGI was 46 µM in the assay on SK-MEL-2 melanoma; above 100 µM in the assay with HT29 colon; 30.9 µM in the assay on SK-OV-3 ovarian; 46 µM in the assay on SNB-75 CNS; 53.1 µM in the assay with OVCAR-4 ovarian.
`O=C(N=Nc1ccc(Cl)cc1Cl)NNc1ccc(Cl)cc1Cl`: the TGI with TK-10 renal is 55.5 µM; with SNB-19 CNS, above 100 µM; with K-562 leukemia, 72.6 µM; in the assay on MDA-MB-435, 51.3 µM; in the assay on NCI-H226 lung it was 48.2 µM; with NCI-H460 lung, 33.4 µM. Also, the TGI in the assay with SK-MEL-2 melanoma is 27 µM; with HT29 colon it was 75.3 µM; in the assay on SNB-75 CNS it was above 100 µM; with MALME-3M melanoma, 36.6 µM; in the assay on HCT-15 colon it was 46.8 µM; in the assay with OVCAR-4 ovarian, 38 µM.
On to `CC(=O)C(C)C(=O)N1C(=O)N(C)C2(C)N(C)C(=O)NC12C` (stereo not given), for which the TGI in the assay on TK-10 renal, with MCF7 breast, in the assay on SNB-19 CNS, in the assay with COLO 205 colon, in the assay with MDA-MB-435 and in the assay with NCI-H460 lung was above 100 µM in each case. Moreover, the TGI in the assay on SK-MEL-2 melanoma, with HT29 colon, with SK-OV-3 ovarian, in the assay with SNB-75 CNS, in the assay with MALME-3M melanoma and in the assay on HCT-15 colon was above 100 µM throughout. For the same molecule, in the assay with OVCAR-4 ovarian, the TGI is above 100 µM.
For the molecule `N#CCCN(CCC#N)c1ccc(/C=C2\N=C(c3ccccc3)N(c3ccc(C(=O)O)cc3)C2=O)cc1`, the TGI with TK-10 renal, with MCF7 breast, in the assay with SNB-19 CNS, in the assay with RXF 393 renal, in the assay with K-562 leukemia and in the assay on COLO 205 colon was above 100 µM throughout. Also, the TGI in the assay with MDA-MB-435 is above 100 µM; in the assay on NCI-H226 lung, 95.5 µM; with NCI-H460 lung, above 100 µM; in the assay on SK-MEL-2 melanoma, above 100 µM; in the assay with HT29 colon, above 100 µM; in the assay on SK-OV-3 ovarian, above 100 µM. In addition, the TGI was above 100 µM in the assay on HCT-15 colon and 66.8 µM with OVCAR-4 ovarian.
